The test system of this test is purified HLA class II DR, DP and DQ molecules. In words: MHC-peptide binding assays. Set-up: species or system human. The settings on record: allele as in inferred restricting HLA allele column.

Regarding “ESAT-6 73–87: 15-mer peptide epitope, residues 73–87 of ESAT-6 (Rv3875) (ARTISEAGQAMASTE; UniProt P9WNK7 73-87, looked up, fragment)”, the “Binding to the allelic variant shared by all responders” value is “high affinity”.

On to “CFP10 52–66: 15-mer peptide epitope, residues 52–66 of CFP10 (Rv3874)”, for which the “Binding to the allelic variant shared by all responders” value is recorded as “high affinity”.

For the origin of these results see paper PMC3345088 (Journal of Immunology (Baltimore, Md. : 1950), 2012).
